{"source": "patent US20210171576A1", "about": "“METHODS FOR TREATING CANCER WITH ACYLDEPSIPEPTIDE ANALOGS” (priority 2018, published 2021)", "key": {"HsCIpP": {"target": "T1, HsCIpP (Homo sapiens, UniProt Q16740, P57S)", "T1 construct": "2x(His6-thrombin)-SUMO (N, cleaved yes); made in house; host or cells: E. coli (SG1146 stated for HsClpP; 'a similar protocol' for HsClpX)", "T1 sequence (Q16740 57-277 P57S)": "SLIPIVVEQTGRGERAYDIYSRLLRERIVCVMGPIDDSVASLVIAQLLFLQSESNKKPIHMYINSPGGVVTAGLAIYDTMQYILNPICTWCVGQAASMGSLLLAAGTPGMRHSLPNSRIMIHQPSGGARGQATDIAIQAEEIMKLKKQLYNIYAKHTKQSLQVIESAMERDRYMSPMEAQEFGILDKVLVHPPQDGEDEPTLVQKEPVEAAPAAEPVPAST", "test": "Peptidase activity assay (Ac-WLA-AMC cleavage) with ADEP", "type": "biochemical", "settings": "6 μM HsCIpP, 100 μM Ac-WLA-AMC", "protocol": "The peptidase activity of purified, untagged HsCIpP was assessed by monitoring the degradation of peptidyl substrates labelled with a C-terminal 7-amido-4-methylcoumarin (AMC) fluorophore. […] To identify a suitable peptidyl substrate, commercially available AMC-labelled peptides were purchased and tested for degradation by HsCIpP. These include N-acetyl-Trp-Leu-Ala-AMC (Ac-WLA-AMC) (R&D Systems) that was also previously used by Csizmadia et (Csizmadia et al., 2016), benzyloxycarbonyl-Arg-Arg-AMC (Z-RR-AMC) (Sigma-Aldrich), N-acetyl-Leu-Glu-His-Asp-AMC […] (Sigma-Aldrich), N-acetyl-Val-Glu-Thr-Asp-AMC (Ac-VETD-AMC) (Sigma-Aldrich), and benzyloxycarbonyl-Leu-Leu-Leu-AMC (Z-LLL-AMC) (Sigma-Aldrich). Suc-LY-AMC (MP Biomedicals) was also tested as a negative control. All stock solutions of the AMC-labelled peptides were prepared by dissolving the lyophilized peptides in DMSO at 90 mM or a lower concentration recommended by the manufacturer. […] Degradation of the peptidyl substrates and subsequent release of the free AMC moiety was monitored by fluorescence with λex=360 nm and λem=440 nm using the EnSpire 2300 Multilabel Reader (Perkin-Elmer) set to perform a reading every 30 s with 20 flashes. A total of 240 readings were collected for each of three independent replicates prepared for each peptidyl substrate. […]\nInitial degradation rates data were analyzed using the Hill model. […]"}, "HEK293 T-REx WT cells": {"tested_on": "HEK293 T-REx WT cells", "test": "Western blots for HsCIpX and apoptotic protein markers", "type": "cell-based, human", "protocol": "Cells were harvested by the standard trypsinization protocol and counted with a hemocytometer. Cell lysates were prepared by first re-suspending the cells in PBS at 5×10^6 cells/mL, followed by sonication. Proteins in the lysates were analyzed by Western blotting using Immobilin-P PVDF membranes (EMD Millipore). Blots were imaged and analyzed with the ChemiDoc XRS+ System (BioRad). Quantification of HsCIpP expression was performed by densitometry using the Quantity One 1D Analysis Software (BioRad). HsCIpP expression levels were corrected for sample loading errors and normalized to the expression level in HEK293 T-REx WT. Primary antibodies for HsCIpP, HsCIpX and GAPDH were purchased from Abcam. Primary antibodies for Caspase-8, Caspase-9 and PUMA were purchased from Cell Signaling Technologies. The primary antibody for Caspase-3 was purchased from R&D Systems. Primary antibodies for Mcl-1 and Bcl-2 were purchased from EMD Millipore. The primary antibody for the FLAG-tag was purchased from Sigma-Aldrich. HRP-conjugated goat anti-rabbit IgG (for HsCIpX, Caspase-8, Caspase-9 and PUMA) and HRP-conjugated goat anti-mouse IgG (for HsCIpP, Mcl-1, Bcl-2, GAPDH and FLAG-tag) were purchased from BioRad. HRP-conjugated rabbit anti-goat IgG (for Caspase-3) was purchased from Sigma-Aldrich."}, "HeLa (regular) cells": {"tested_on": "HeLa (regular) cells", "test": "Cytotoxicity, SRB staining"}, "U2OS cells": {"tested_on": "U2OS cells", "test": "Cytotoxicity, SRB staining"}, "[1]": {"tested_on": "HEK293 T-REx+CLPP-FLAG cells", "test": "Cytotoxicity, SRB staining, with or without Dox"}, "[2]": {"tested_on": "HEK293 T-REx+CLPPS153A-FLAG cells", "test": "Cytotoxicity, SRB staining, with or without Dox"}}, "note": "Where a SMILES comes first, the peptide text is derived from it. Bridges are numbered along the chain shown (N, C = ends). [ ]: non-standard residue; d: D form. The star is where a group is joined. Phe(3,5-F2) = N[C@@H](Cc1cc(F)cc(F)c1)C(=O)O; Heptenoyl(2E) = CCCC/C=C/C(=O)*; aThr = C[C@H](O)[C@H](N)C(=O)O; Pip = O=C(O)[C@@H]1CCCCN1", "data": [{"smiles": "CCCC/C=C/C(=O)N[C@@H](Cc1cc(F)cc(F)c1)C(=O)N[C@@H]1C(=O)N2CCC[C@H]2C(=O)N2CCCC[C@H]2C(=O)N[C@@H](C)C(=O)N2CCC[C@H]2C(=O)O[C@H]1C", "note": "[ADEP-41] ({Heptenoyl(2E)}-[Phe(3,5-F2)][aThr]P[Pip]AP; ester 2-C)", "values": [{"measurement": "Hill coefficient (h), peptidase activity", "setting": "HsCIpP", "result": 1.5}, {"measurement": "activation-specific cleavage of Caspase-8", "setting": "HEK293 T-REx WT cells; 10 μM, 72 hours", "result": "no activation-specific cleavage was observed"}, {"measurement": "activation-specific cleavage of Caspase-9 and Caspase-3", "setting": "HEK293 T-REx WT cells; 10 μM, 72 hours", "result": "activation-specific cleavage was detected"}, {"measurement": "level of anti-apoptotic Bcl-2 protein", "setting": "HEK293 T-REx WT cells; 10 μM, 72 hours", "result": "no change"}, {"measurement": "HsCIpX level", "setting": "HEK293 T-REx WT cells; 20 μM 24 hours or 10 μM 72 hours", "result": "no longer detected"}, {"measurement": "activation-specific cleavage of Caspase-8, Caspase-9 or Caspase-3", "setting": "HEK293 T-REx WT cells; 20 μM, 24 hours", "result": "no activation-specific cleavage was observed"}, {"measurement": "anti-apoptotic Mcl-1 protein", "setting": "HEK293 T-REx WT cells; 20 μM, 24 hours", "result": "degraded"}, {"measurement": "pro-apoptotic PUMA protein", "setting": "HEK293 T-REx WT cells; 20 μM, 24 hours", "result": "significantly upregulated"}, {"measurement": "IC50 compared across cell lines", "setting": "HeLa (regular) cells", "result": "similar"}, {"measurement": "IC50 compared across cell lines", "setting": "U2OS cells", "result": "similar"}, {"measurement": "change in IC50 relative to WT", "setting": "[1]; 0.4 μg/mL Dox, HsCIpP overexpression", "result": "significant decrease in IC50"}, {"measurement": "sensitivity relative to WT", "setting": "[1]; without Dox", "result": "equally sensitive"}, {"measurement": "change in IC50", "setting": "[2]; 0.4 μg/mL Dox, inactive HsCIpP(S153A) overexpression", "result": "no change in IC50"}, {"measurement": "sensitivity relative to WT", "setting": "[2]; without Dox", "result": "equally sensitive"}]}]}
